# Data reported in US6352958B1, “Cycloimido-substituted benzofused heterocyclic herbicides” (FMC Corporation, priority 1997, dated 2002).
# Experiments:
# Type in all cases: in vivo
# [1] = tested on: soybean (Glycine max var. Winchester); experiment: Preemergence herbicidal activity, soybean; conditions: Rate of Application 0.3 Kg/Ha, examined after 12-17 days
# [2] = tested on: wheat (Triticum aestivum var. Lew); experiment: Preemergence herbicidal activity, wheat; conditions: Rate of Application 0.3 Kg/Ha, examined after 12-17 days
# [3] = tested on: field corn (Zea mays var. Pioneer 3732); experiment: Preemergence herbicidal activity, corn; conditions: Rate of Application 0.3 Kg/Ha, examined after 12-17 days
# [4] = tested on: velvetleaf (Abutilon theophrasti); experiment: Preemergence herbicidal activity, velvetleaf; conditions: Rate of Application 0.3 Kg/Ha, examined after 12-17 days
# [5] = tested on: morningglory (Ipomea lacunosa or Ipomea hederacea); experiment: Preemergence herbicidal activity, morningglory; conditions: Rate of Application 0.3 Kg/Ha, examined after 12-17 days
# [6] = tested on: common chickweed (Stellaria media); experiment: Preemergence herbicidal activity, chickweed; conditions: Rate of Application 0.3 Kg/Ha, examined after 12-17 days
# [7] = tested on: common cocklebur (Xanthium strumarium L.); experiment: Preemergence herbicidal activity, cocklebur; conditions: Rate of Application 0.3 Kg/Ha, examined after 12-17 days
# [8] = tested on: blackgrass (Aloepecurus myosuroides); experiment: Preemergence herbicidal activity, blackgrass; conditions: Rate of Application 0.3 Kg/Ha, examined after 12-17 days
# [9] = tested on: green foxtail (Setaria viridis); experiment: Preemergence herbicidal activity, green foxtail; conditions: Rate of Application 0.3 Kg/Ha, examined after 12-17 days
# [10] = tested on: Johnsongrass (Sorghum halepense); experiment: Preemergence herbicidal activity, johnsongrass; conditions: Rate of Application 0.3 Kg/Ha, examined after 12-17 days
# [11] = tested on: soybean (Glycine max var. Winchester); experiment: Postemergence herbicidal activity, soybean; conditions: rate of application 0.3 Kg/Ha, rated after 12-17 days
# [12] = tested on: wheat (Triticum aestivum var. Lew); experiment: Postemergence herbicidal activity, wheat; conditions: rate of application 0.3 Kg/Ha, rated after 12-17 days
# [13] = tested on: field corn (Zea mays var. Pioneer 3732); experiment: Postemergence herbicidal activity, corn; conditions: rate of application 0.3 Kg/Ha, rated after 12-17 days
# [14] = tested on: velvetleaf (Abutilon theophrasti); experiment: Postemergence herbicidal activity, velvetleaf; conditions: rate of application 0.3 Kg/Ha, rated after 12-17 days
# [15] = tested on: morningglory (Ipomea lacunosa or Ipomea hederacea); experiment: Postemergence herbicidal activity, morningglory; conditions: rate of application 0.3 Kg/Ha, rated after 12-17 days
# [16] = tested on: common chickweed (Stellaria media); experiment: Postemergence herbicidal activity, chickweed; conditions: rate of application 0.3 Kg/Ha, rated after 12-17 days
# [17] = tested on: common cocklebur (Xanthium strumarium L.); experiment: Postemergence herbicidal activity, cocklebur; conditions: rate of application 0.3 Kg/Ha, rated after 12-17 days
# [18] = tested on: blackgrass (Aloepecurus myosuroides); experiment: Postemergence herbicidal activity, blackgrass; conditions: rate of application 0.3 Kg/Ha, rated after 12-17 days
# [19] = tested on: green foxtail (Setaria viridis); experiment: Postemergence herbicidal activity, green foxtail; conditions: rate of application 0.3 Kg/Ha, rated after 12-17 days
# [20] = tested on: Johnsongrass (Sorghum halepense); experiment: Postemergence herbicidal activity, johnsongrass; conditions: rate of application 0.3 Kg/Ha, rated after 12-17 days
structure (smiles),measurement,setting,value
COCc1nc2c(-n3c(=O)cc(C(F)(F)F)n(C)c3=O)c(F)cc(Cl)c2[nH]1 [Compound 370],PREEMERGENCE HERBICIDAL ACTIVITY (% CONTROL) SOY,[1],100%
same,PREEMERGENCE HERBICIDAL ACTIVITY (% CONTROL) WHT,[2],100%
same,PREEMERGENCE HERBICIDAL ACTIVITY (% CONTROL) CRN,[3],95%
same,PREEMERGENCE HERBICIDAL ACTIVITY (% CONTROL) ABUTH,[4],100%
same,PREEMERGENCE HERBICIDAL ACTIVITY (% CONTROL) IPOSS,[5],100%
same,PREEMERGENCE HERBICIDAL ACTIVITY (% CONTROL) STEME,[6],100%
same,PREEMERGENCE HERBICIDAL ACTIVITY (% CONTROL) XANPE,[7],100%
same,PREEMERGENCE HERBICIDAL ACTIVITY (% CONTROL) ALOMY,[8],90%
same,PREEMERGENCE HERBICIDAL ACTIVITY (% CONTROL) SETVI,[9],100%
same,PREEMERGENCE HERBICIDAL ACTIVITY (% CONTROL) SORHA,[10],100%
same,Postemergence herbicidal activity (% control) SOY,[11],100%
same,Postemergence herbicidal activity (% control) WHT,[12],95%
same,Postemergence herbicidal activity (% control) CRN,[13],100%
same,Postemergence herbicidal activity (% control) ABUTH,[14],100%
same,Postemergence herbicidal activity (% control) IPOSS,[15],100%
same,Postemergence herbicidal activity (% control) STEME,[16],100%
same,Postemergence herbicidal activity (% control) XANPE,[17],100%
same,Postemergence herbicidal activity (% control) ALOMY,[18],100%
same,Postemergence herbicidal activity (% control) SETVI,[19],100%
same,Postemergence herbicidal activity (% control) SORHA,[20],100%
CCOC(=O)CCc1nc2c(-n3c(=O)cc(C(F)(F)F)n(C)c3=O)c(F)cc(Cl)c2[nH]1 [Compound 372],PREEMERGENCE HERBICIDAL ACTIVITY (% CONTROL) SOY,[1],100%
same,PREEMERGENCE HERBICIDAL ACTIVITY (% CONTROL) WHT,[2],90%
same,PREEMERGENCE HERBICIDAL ACTIVITY (% CONTROL) CRN,[3],95%
same,PREEMERGENCE HERBICIDAL ACTIVITY (% CONTROL) ABUTH,[4],100%
same,PREEMERGENCE HERBICIDAL ACTIVITY (% CONTROL) IPOSS,[5],100%
same,PREEMERGENCE HERBICIDAL ACTIVITY (% CONTROL) STEME,[6],100%
same,PREEMERGENCE HERBICIDAL ACTIVITY (% CONTROL) XANPE,[7],100%
same,PREEMERGENCE HERBICIDAL ACTIVITY (% CONTROL) ALOMY,[8],80%
same,PREEMERGENCE HERBICIDAL ACTIVITY (% CONTROL) SETVI,[9],100%
same,PREEMERGENCE HERBICIDAL ACTIVITY (% CONTROL) SORHA,[10],80%
same,Postemergence herbicidal activity (% control) SOY,[11],100%
same,Postemergence herbicidal activity (% control) WHT,[12],100%
same,Postemergence herbicidal activity (% control) CRN,[13],100%
same,Postemergence herbicidal activity (% control) ABUTH,[14],100%
same,Postemergence herbicidal activity (% control) IPOSS,[15],100%
same,Postemergence herbicidal activity (% control) STEME,[16],100%
same,Postemergence herbicidal activity (% control) XANPE,[17],100%
same,Postemergence herbicidal activity (% control) ALOMY,[18],100%
same,Postemergence herbicidal activity (% control) SETVI,[19],100%
same,Postemergence herbicidal activity (% control) SORHA,[20],100%
Cn1c(C(F)(F)F)cc(=O)n(-c2c(F)cc(Cl)c3[nH]c(C4CCCCC4)nc23)c1=O [Compound 373],PREEMERGENCE HERBICIDAL ACTIVITY (% CONTROL) SOY,[1],100%
same,PREEMERGENCE HERBICIDAL ACTIVITY (% CONTROL) WHT,[2],70%
same,PREEMERGENCE HERBICIDAL ACTIVITY (% CONTROL) CRN,[3],90%
same,PREEMERGENCE HERBICIDAL ACTIVITY (% CONTROL) ABUTH,[4],100%
same,PREEMERGENCE HERBICIDAL ACTIVITY (% CONTROL) IPOSS,[5],100%
same,PREEMERGENCE HERBICIDAL ACTIVITY (% CONTROL) STEME,[6],100%
same,PREEMERGENCE HERBICIDAL ACTIVITY (% CONTROL) XANPE,[7],100%
same,PREEMERGENCE HERBICIDAL ACTIVITY (% CONTROL) ALOMY,[8],70%
same,PREEMERGENCE HERBICIDAL ACTIVITY (% CONTROL) SETVI,[9],100%
same,PREEMERGENCE HERBICIDAL ACTIVITY (% CONTROL) SORHA,[10],90%
same,Postemergence herbicidal activity (% control) SOY,[11],100%
same,Postemergence herbicidal activity (% control) WHT,[12],80%
same,Postemergence herbicidal activity (% control) CRN,[13],100%
same,Postemergence herbicidal activity (% control) ABUTH,[14],100%
same,Postemergence herbicidal activity (% control) IPOSS,[15],100%
same,Postemergence herbicidal activity (% control) STEME,[16],100%
same,Postemergence herbicidal activity (% control) XANPE,[17],100%
same,Postemergence herbicidal activity (% control) ALOMY,[18],100%
same,Postemergence herbicidal activity (% control) SETVI,[19],100%
same,Postemergence herbicidal activity (% control) SORHA,[20],100%
